One assay deals with T1, human EP3 receptor (Homo sapiens, UniProt P43115).
T1 construct: expressed in transfected cells
T1 sequence (P43115 1-390): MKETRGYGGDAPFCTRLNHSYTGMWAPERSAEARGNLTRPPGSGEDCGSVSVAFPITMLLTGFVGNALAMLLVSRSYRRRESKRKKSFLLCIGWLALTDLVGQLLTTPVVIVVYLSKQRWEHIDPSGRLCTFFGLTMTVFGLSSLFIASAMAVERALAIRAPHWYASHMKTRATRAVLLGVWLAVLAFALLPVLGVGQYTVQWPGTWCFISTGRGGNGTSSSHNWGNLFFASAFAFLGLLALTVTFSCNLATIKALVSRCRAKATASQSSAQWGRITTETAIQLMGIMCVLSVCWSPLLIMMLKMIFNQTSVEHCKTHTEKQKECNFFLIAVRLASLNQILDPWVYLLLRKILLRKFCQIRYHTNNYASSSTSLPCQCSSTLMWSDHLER
In words: Binding ability to human EP3 receptor ([3H]PGE2 displacement). The settings on record: membranes from cells stably transfected with human EP receptor cDNA; [3H]PGE2 2.5 nM; Cheng-Prusoff from IC50; read-out: pKi EP3 (converted). Here is the method:
(§1) Membranes were prepared from cells stably transfected with human EP receptor cDNA. In brief, cells were cultured to confluency, scraped from culture flasks, and centrifuged (800 g, 8 minutes, 4° C.). Cells were twice washed in ice cold homogenisation buffer containing 10 mMTris-HCl, 1 mM EDTA. 2Na, 250 mM sucrose, 1 mM PMSF, 0.3 mM indomethacin, pH 7.4, homogenised and re-centrifuged as before. The supernatant was stored on ice and pellets re-homogenised and re-spun. Supernatants were pooled and centrifuged at 40000 g, 10 minutes, 4° C. Resultant membrane pellets were stored at −80° C. until use.
(§2) For assay, membranes expressing human EP4, EP3, EP2 or EP1 receptors were incubated in Millipore (MHVBN45) plates containing assay buffer, radiolabelled [^3H]PGE2 and 0.1 to 10 000 nM concentrations of compounds. Incubations were performed at suitable temperatures and for suitable times to allow equilibrium to be reached. Non-specific binding was determined in the presence of 10 uM PGE2. Bound and free radiolabel was separated by vacuum manifold filtration using appropriate wash buffers, and bound radiolabel was determined by scintillation counting. Constituents of each of the buffers are included in table 1 below.
(§3) This approach follows that set out in Kenakin, T. P., Pharmacologic analysis of drug receptor interaction. Raven Press, New York, 2nd edition.

Another assay deals with T2, human EP4 receptor (Homo sapiens, UniProt P35408).
T2 construct: expressed in transfected cells
T2 sequence (P35408 whole entry): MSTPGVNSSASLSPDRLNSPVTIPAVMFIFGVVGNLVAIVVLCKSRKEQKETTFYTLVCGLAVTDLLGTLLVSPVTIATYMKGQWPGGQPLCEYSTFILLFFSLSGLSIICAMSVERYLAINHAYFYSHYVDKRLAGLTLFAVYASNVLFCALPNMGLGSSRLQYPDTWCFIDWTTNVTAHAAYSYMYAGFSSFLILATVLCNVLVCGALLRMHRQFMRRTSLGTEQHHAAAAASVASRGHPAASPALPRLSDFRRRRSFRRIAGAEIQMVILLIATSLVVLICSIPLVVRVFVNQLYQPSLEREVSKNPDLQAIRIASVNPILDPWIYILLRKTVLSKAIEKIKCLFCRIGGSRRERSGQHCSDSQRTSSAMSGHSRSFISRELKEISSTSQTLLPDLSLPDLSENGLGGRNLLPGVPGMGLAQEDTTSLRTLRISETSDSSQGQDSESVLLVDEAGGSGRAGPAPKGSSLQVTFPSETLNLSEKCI
In words: Binding ability to human EP4 receptor ([3H]PGE2 displacement). To be noted: read-out: pKi EP4 (converted). Here is the method:
as §1
Incubations were performed at suitable temperatures and for suitable times to allow equilibrium to be reached. Non-specific binding was determined in the presence of 10 uM PGE2. Bound and free radiolabel was separated by vacuum manifold filtration using appropriate wash buffers, and bound radiolabel was determined by scintillation counting. Constituents of each of the buffers are included in table 1 below.
as §3

The target of the next assay is T3, human EP2 receptor (Homo sapiens, UniProt P43116).
T3 construct: expressed in transfected cells
T3 sequence (P43116 whole entry): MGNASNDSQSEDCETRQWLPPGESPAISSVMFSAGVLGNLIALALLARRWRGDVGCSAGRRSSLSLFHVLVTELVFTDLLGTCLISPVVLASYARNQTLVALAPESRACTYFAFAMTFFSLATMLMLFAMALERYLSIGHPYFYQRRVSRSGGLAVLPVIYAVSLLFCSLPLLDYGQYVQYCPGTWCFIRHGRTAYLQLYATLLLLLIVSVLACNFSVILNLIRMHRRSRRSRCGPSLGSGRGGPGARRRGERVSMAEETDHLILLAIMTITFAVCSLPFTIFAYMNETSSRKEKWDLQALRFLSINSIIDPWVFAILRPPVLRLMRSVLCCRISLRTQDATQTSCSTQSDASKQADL
As to the kind of experiment: Binding ability to human EP2 receptor ([3H]PGE2 displacement). The settings on record: read-out: pKi EP2 (converted). Here is the method: as §1, §2, §3

The text below walks through data of patent publication US7858644B2, “EP4 receptor antagonists” (Asterand UK Limited, priority 2003, dated 2010).

A value given as a limit tells only on which side of the number the result lay.

Regarding `CCCC(=O)NS(=O)(=O)c1cc(COc2ccc(-c3ccccc3)cc2)c(C)o1` [Compound 61, 4-(Biphenyl-4-yloxymethyl)-5-methyl-furan-2-sulphonic acid butyryl-amide], the Ki at human EP3 receptor is more than 10 µM; at human EP4 receptor it was less than 1 µM; at human EP2 receptor it was more than 10 µM.
`Cc1oc(S(=O)(=O)NC(=O)Cc2ccccc2)cc1COc1ccc(-c2ccccc2)cc1` [Compound 62, 4-(Biphenyl-4-yloxymethyl)-5-methyl-furan-2-sulphonic acid phenylacetyl-amide]: the Ki is more than 10 µM at human EP3 receptor, less than 0.1 µM on human EP4 receptor and more than 10 µM on human EP2 receptor.
As to `Cc1noc(C)c1C(=O)NS(=O)(=O)c1cc(COc2ccc(-c3ccccc3)cc2)c(C)o1` [Compound 63, 4-(Biphenyl-4-yloxymethyl)-5-methyl-furan-2-sulphonic acid (3,5-dimethyl-isoxazole-4-carbonyl)-amide], the results for the Ki at human EP3 receptor, at human EP4 receptor and on human EP2 receptor were more than 10 µM, less than 0.316 µM and more than 10 µM, respectively.
`Cc1oc(S(=O)(=O)NC(=O)c2cccs2)cc1COc1ccc(-c2ccccc2)cc1` [Compound 64, 4-(Biphenyl-4-yloxymethyl)-5-methyl-furan-2-sulphonic acid (thiophene-2-carbonyl)-amide]: the Ki on human EP3 receptor is more than 10 µM; at human EP4 receptor, less than 0.1 µM; on human EP2 receptor, more than 10 µM.
In the case of `Cc1oc(S(=O)(=O)NC(=O)c2ccncc2)cc1COc1ccc(-c2ccccc2)cc1` [Compound 67, 4-(Biphenyl-4-yloxymethyl)-5-methyl-furan-2-sulphonic acid (pyridine-4-carbonyl)-amide], the Ki on human EP3 receptor is more than 10 µM; at human EP4 receptor, less than 1 µM; on human EP2 receptor it was more than 10 µM.
Regarding `Cc1oc(S(=O)(=O)NC(=O)c2cccnc2)cc1COc1ccc(-c2ccccc2)cc1` [Compound 68, 4-(Biphenyl-4-yloxymethyl)-5-methyl-furan-2-sulphonic acid (pyridine-3-carbonyl)-amide], the Ki at human EP3 receptor was more than 10 µM; on human EP4 receptor, less than 1 µM; on human EP2 receptor, more than 10 µM.
As to `COc1ccc(-c2ccc(OCCc3cc(C(=O)O)oc3C)cc2)cc1` [Compound 73, 4-[2-(4′-Methoxy-biphenyl-4-yloxy)-ethyl]-5-methyl-furan-2-carboxylic acid], the Ki at human EP3 receptor is more than 10 µM; at human EP4 receptor, less than 3.16 µM; on human EP2 receptor, more than 10 µM.
`Cc1oc(C(=O)O)cc1CCOc1ccc2c(c1)oc1ccccc12` [Compound 74, 4-[2-(Dibenzofuran-3-yloxy)-ethyl]-5-methyl-furan-2-carboxylic acid]: the results for the Ki on human EP3 receptor, on human EP4 receptor and on human EP2 receptor were more than 10 µM, less than 3.16 µM and more than 10 µM, respectively.
In the case of `O=C(O)c1cc(COc2ccc3oc4ccccc4c3c2)co1` [Compound 78, 4-(Dibenzofuran-2-yloxymethyl)-furan-2-carboxylic acid], the Ki was more than 10 µM at human EP3 receptor, less than 10 µM on human EP4 receptor and more than 3.16 µM on human EP2 receptor.
`N#Cc1ccc(-c2ccc(OCc3coc(C(=O)O)c3)cc2)cc1` [Compound 79, 4-(4′-Cyano-biphenyl-4-yloxymethyl)-furan-2-carboxylic acid]: the Ki at human EP3 receptor is more than 10 µM; at human EP4 receptor, less than 3.16 µM; at human EP2 receptor, more than 10 µM.
For `COc1ccc(-c2ccc(OCc3coc(C(=O)O)c3)cc2)cc1` [Compound 80, 4-(4′-Methoxy-biphenyl-4-yloxymethyl)-furan-2-carboxylic acid], the Ki at human EP3 receptor is more than 10 µM; on human EP4 receptor it was less than 0.316 µM; at human EP2 receptor it was more than 10 µM.
For the compound `O=C(O)c1cc(COc2ccc3c(c2)oc2ccccc23)co1` [Compound 81, 4-(Dibenzofuran-3-yloxymethyl)-furan-2-carboxylic acid], the Ki was more than 10 µM on human EP3 receptor, less than 3.16 µM on human EP4 receptor and more than 3.16 µM on human EP2 receptor.
The like results for `COc1ccc(-c2ccc(OCc3cc(C(=O)O)oc3C(C)C)cc2)cc1` [Compound 86, 5-Isopropyl-4-(4′-methoxy-biphenyl-4-yloxymethyl)-furan-2-carboxylic acid] were, in that order, more than 10 µM, less than 1 µM and more than 10 µM.
The like results for `CC(C)c1oc(C(=O)O)cc1COc1ccc2c(c1)oc1ccccc12` [Compound 87, 4-(Dibenzofuran-3-yloxymethyl)-5-isopropyl-furan-2-carboxylic acid] were, in that order, more than 10 µM, less than 3.16 µM and more than 10 µM.
The like results for `O=C(O)c1cc(COc2cccc(-c3ccccc3)c2)c(C(F)(F)F)o1` [Compound 91, 4-(Biphenyl-3-yloxymethyl)-5-trifluoromethyl-furan-2-carboxylic acid] were, in that order, more than 10 µM, less than 3.16 µM and more than 10 µM.
For `O=C(O)c1cc(COc2ccc3oc4ccccc4c3c2)c(C(F)(F)F)o1` [Compound 92, 4-(Dibenzofuran-2-yloxymethyl)-5-trifluoromethyl-furan-2-carboxylic acid], the Ki at human EP3 receptor is more than 10 µM; at human EP4 receptor it was less than 3.16 µM; at human EP2 receptor, more than 10 µM.
Regarding `N#Cc1ccc(-c2ccc(OCc3cc(C(=O)O)oc3C(F)(F)F)cc2)cc1` [Compound 93, 4-(4′-Cyano-biphenyl-4-yloxymethyl)-5-trifluoromethyl-furan-2-carboxylic acid], the Ki at human EP3 receptor was more than 10 µM; at human EP4 receptor, less than 3.16 µM; at human EP2 receptor, more than 10 µM.
For `COc1ccc(-c2ccc(OCc3cc(C(=O)O)oc3C(F)(F)F)cc2)cc1` [Compound 94, 4-(4′-Methoxy-biphenyl-4-yloxymethyl)-5-trifluoromethyl-furan-2-carboxylic acid], the Ki is more than 10 µM at human EP3 receptor, less than 0.316 µM at human EP4 receptor and more than 10 µM on human EP2 receptor.
`O=C(O)c1cc(COc2ccc3c(c2)oc2ccccc23)c(C(F)(F)F)o1` [Compound 95, 4-(Dibenzofuran-3-yloxymethyl)-5-trifluoromethyl-furan-2-carboxylic acid]: the Ki is more than 10 µM at human EP3 receptor, less than 3.16 µM at human EP4 receptor and more than 3.16 µM at human EP2 receptor.
The like results for `CCOc1ccc(-c2ccc(OCc3cc(C(=O)O)oc3C)cc2)cc1` [Compound 98, 4-(4′-Ethoxy-biphenyl-4-yloxymethyl)-5-methyl-furan-2-carboxylic acid] were, in that order, more than 10 µM, less than 0.316 µM and more than 10 µM.
The like results for `Cc1oc(C(=O)O)cc1COc1ccc(-c2ccccc2Cl)cc1` [Compound 99, 4-(2′-Chloro-biphenyl-4-yloxymethyl)-5-methyl-furan-2-carboxylic acid] were, in that order, more than 10 µM, less than 1 µM and more than 3.16 µM.
Turning to `Cc1oc(C(=O)O)cc1COc1ccc(-c2c(F)cccc2F)cc1` [Compound 100, 4-(2′,6′-Difluoro-biphenyl-4-yloxymethyl)-5-methyl-furan-2-carboxylic acid], the Ki is more than 10 µM on human EP3 receptor, less than 3.16 µM on human EP4 receptor and more than 10 µM at human EP2 receptor.
As to `Cc1oc(C(=O)O)cc1COc1ccc(-c2ccccc2C(F)(F)F)cc1` [Compound 102, 5-Methyl-4-(2′-trifluoromethyl-biphenyl-4-yloxymethyl)-furan-2-carboxylic acid], the Ki on human EP3 receptor was more than 10 µM; on human EP4 receptor, less than 3.16 µM; at human EP2 receptor, more than 3.16 µM.
